Assay results as given in US8415351B2 (priority 2007, dated 2013).

Assays:
[1] = system: genotype 1a-H77 subgenomic replicon cell line; test: microbe, parasite or virus in culture; format: cell-based, HCV; settings: Hepatitis C virus, read-out: EC50 1a
[2] = biological target: T1, HCV polymerase 1B (Δ21 NS5B, BK) (Hepatitis C virus genotype 1b, UniProt P26663); test: biochemical
T1 construct: 20 to 50 nM Δ21 NS5B
Procedure, shortened: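 Δ21 NS5B (genotype 1b, BK […]) preincubated 15 min RT with inhibitor, 2 mM MnCl2, pH 7.4, 60–125 μM GTP; started with 20 μM CTP/ATP, 1 μM 3H-UTP, 5 nM template RNA, run 2–4 h RT. Spermine-precipitated RNA filter-captured, scintillation counted; IC50 from tight-binding (Morrison) fit.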

[3] = biological target: T2, HCV polymerase 1A (Δ21 NS5B, H77) (Hepatitis C virus genotype 1a, UniProt P27958); test: biochemical; settings: IC50 1a
T2 construct: 20 to 50 nM Δ21 NS5B
T2 sequence (P27958 2421-2990, stated change not applied): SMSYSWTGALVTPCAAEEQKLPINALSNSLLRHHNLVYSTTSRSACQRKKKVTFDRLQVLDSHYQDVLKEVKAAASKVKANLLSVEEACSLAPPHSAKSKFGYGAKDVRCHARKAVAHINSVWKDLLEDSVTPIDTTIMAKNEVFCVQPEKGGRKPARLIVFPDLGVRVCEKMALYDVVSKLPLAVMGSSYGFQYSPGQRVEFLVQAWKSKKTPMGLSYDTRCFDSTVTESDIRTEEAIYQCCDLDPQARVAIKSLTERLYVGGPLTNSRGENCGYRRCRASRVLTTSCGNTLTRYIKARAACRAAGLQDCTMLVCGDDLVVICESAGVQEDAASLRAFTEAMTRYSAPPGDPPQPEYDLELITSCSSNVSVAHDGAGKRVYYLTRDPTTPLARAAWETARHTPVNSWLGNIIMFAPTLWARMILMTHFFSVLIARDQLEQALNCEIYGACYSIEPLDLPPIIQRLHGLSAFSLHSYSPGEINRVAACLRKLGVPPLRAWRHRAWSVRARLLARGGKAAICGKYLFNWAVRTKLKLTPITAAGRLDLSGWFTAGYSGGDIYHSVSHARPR
Procedure, shortened: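 Radiometric assay with Δ21 NS5B (H77): 20 μM CTP, 20 μM ATP, 1 μM ^3H-UTP, 5 nM template RNA, 2–4 h at room temperature. RNA precipitated with spermine, filter-captured and counted. IC50 from non-linear fit of retained cpm vs inhibitor concentration (tight-binding equation).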

[4] = system: genotype 1b-Con1 subgenomic replicon cell line; test: microbe, parasite or virus in culture; format: cell-based, HCV; settings: Hepatitis C virus, read-out: EC50 1b

T1 sequence (P26663 2420-2989, stated change not applied): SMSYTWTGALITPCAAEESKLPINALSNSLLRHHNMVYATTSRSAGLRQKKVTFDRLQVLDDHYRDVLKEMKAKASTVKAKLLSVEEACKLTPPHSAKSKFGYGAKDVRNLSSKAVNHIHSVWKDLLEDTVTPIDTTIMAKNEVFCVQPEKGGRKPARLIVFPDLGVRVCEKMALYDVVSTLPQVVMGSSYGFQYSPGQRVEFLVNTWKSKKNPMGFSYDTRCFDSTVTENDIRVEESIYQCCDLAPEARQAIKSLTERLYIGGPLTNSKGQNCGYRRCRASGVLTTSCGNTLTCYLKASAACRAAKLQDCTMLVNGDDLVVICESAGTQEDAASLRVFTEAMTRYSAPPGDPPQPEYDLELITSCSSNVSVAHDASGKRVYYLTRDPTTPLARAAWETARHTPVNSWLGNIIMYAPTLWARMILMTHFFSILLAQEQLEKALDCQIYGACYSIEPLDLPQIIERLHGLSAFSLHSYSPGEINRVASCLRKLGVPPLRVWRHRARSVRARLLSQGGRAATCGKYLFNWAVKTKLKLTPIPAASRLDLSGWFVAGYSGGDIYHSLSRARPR

SMILES | EC50 [1] [µM] | IC50 [2] [µM] | IC50 [3] [µM] | EC50 [4] [µM]
COc1c(C#Cc2ccc(NS(C)(=O)=O)cc2C)cc(N2CCC(=O)NC2=O)cc1C(C)(C)C [IA-L2-1.9, N-(4-((3-tert-butyl-5-(2,4-dioxotetrahydropyrimidin-1(2H)-yl)-2-methoxyphenyl)ethynyl)-3-methylphenyl)methanesulfonamide] | < 0.01 | < 0.01 | < 0.01 | < 0.01
COc1c(C#Cc2ccc(NS(C)(=O)=O)c(C)c2)cc(N2CCC(=O)NC2=O)cc1C(C)(C)C [IA-L2-1.10, N-(4-((3-tert-butyl-5-(2,4-dioxotetrahydropyrimidin-1(2H)-yl)-2-methoxyphenyl)ethynyl)-2-methylphenyl)methanesulfonamide] | 0.1 to 1 | 0.01 to 0.1 | 0.01 to 0.1 | 0.01 to 0.1
CCc1cc(NS(C)(=O)=O)ccc1C#Cc1cc(N2CCC(=O)NC2=O)cc(C(C)(C)C)c1OC [IA-L2-1.11, N-(4-((3-tert-butyl-5-(2,4-dioxotetrahydropyrimidin-1(2H)-yl)-2-methoxyphenyl)ethynyl)-3-ethylphenyl)methanesulfonamide] | < 0.01 | 0.01 to 0.1 | < 0.01 | < 0.01
COc1c(C#Cc2ccc(NS(C)(=O)=O)cc2F)cc(N2CCC(=O)NC2=O)cc1C(C)(C)C [IA-L2-1.12, N-(4-((3-tert-butyl-5-(2,4-dioxotetrahydropyrimidin-1(2H)-yl)-2-methoxyphenyl)ethynyl)-3-fluorophenyl)methanesulfonamide] | 0.01 to 0.1 | < 0.01 | < 0.01 | < 0.01
COc1c(C#Cc2ccc(NS(C)(=O)=O)c(F)c2)cc(N2CCC(=O)NC2=O)cc1C(C)(C)C [IA-L2-1.13, N-(4-((3-tert-butyl-5-(2,4-dioxotetrahydropyrimidin-1(2H)-yl)-2-methoxyphenyl)ethynyl)-2-fluorophenyl)methanesulfonamide] | 0.1 to 1 | < 0.01 | < 0.01 | 0.01 to 0.1
COc1c(C#Cc2ccc(NS(C)(=O)=O)cc2Cl)cc(N2CCC(=O)NC2=O)cc1C(C)(C)C [IA-L2-1.14, N-(4-((3-tert-butyl-5-(2,4-dioxotetrahydropyrimidin-1(2H)-yl)-2-methoxyphenyl)ethynyl)-3-chlorophenyl)methanesulfonamide] | < 0.01 | < 0.01 | < 0.01 | < 0.01
COc1c(C#Cc2ccc(NS(C)(=O)=O)c(Cl)c2)cc(N2CCC(=O)NC2=O)cc1C(C)(C)C [IA-L2-1.15, N-(4-((3-tert-butyl-5-(2,4-dioxotetrahydropyrimidin-1(2H)-yl)-2-methoxyphenyl)ethynyl)-2-chlorophenyl)methanesulfonamide] | 0.1 to 1 | 0.01 to 0.1 | 0.01 to 0.1 | 0.1 to 1
COc1cc(NS(C)(=O)=O)ccc1C#Cc1cc(N2CCC(=O)NC2=O)cc(C(C)(C)C)c1OC [IA-L2-1.16, N-(4-((3-tert-butyl-5-(2,4-dioxotetrahydropyrimidin-1(2H)-yl)-2-methoxyphenyl)ethynyl)-3-methoxyphenyl)methanesulfonamide] | 0.01 to 0.1 | 0.01 to 0.1 | < 0.01 | < 0.01
COc1c(C#Cc2ccc(NS(C)(=O)=O)c(OC(F)(F)F)c2)cc(N2CCC(=O)NC2=O)cc1C(C)(C)C [IA-L2-1.17, N-(4-((3-tert-butyl-5-(2,4-dioxotetrahydropyrimidin-1(2H)-yl)-2-methoxyphenyl)ethynyl)-2-(trifluoromethoxy)phenyl)methanesulfonamide] | 0.1 to 1 | 0.01 to 0.1 | 0.01 to 0.1 | 0.01 to 0.1
COc1c(C#Cc2ccc(NS(C)(=O)=O)cc2C(F)(F)F)cc(N2CCC(=O)NC2=O)cc1C(C)(C)C [IA-L2-1.18, N-(4-((3-tert-butyl-5-(2,4-dioxotetrahydropyrimidin-1(2H)-yl)-2-methoxyphenyl)ethynyl)-3-(trifluoromethyl)phenyl)methanesulfonamide] | 0.01 to 0.1 | < 0.01 | < 0.01 | < 0.01
COc1c(C#Cc2ccc(NS(C)(=O)=O)c(C(F)(F)F)c2)cc(N2CCC(=O)NC2=O)cc1C(C)(C)C [IA-L2-1.19, N-(4-((3-tert-butyl-5-(2,4-dioxotetrahydropyrimidin-1(2H)-yl)-2-methoxyphenyl)ethynyl)-2-(trifluoromethyl)phenyl)methanesulfonamide] | > 1 | 0.01 to 0.1 | 0.1 to 1 | > 1
COc1c(C#Cc2cc(F)c(NS(C)(=O)=O)cc2C)cc(N2CCC(=O)NC2=O)cc1C(C)(C)C [IA-L2-1.20, N-(4-((3-tert-butyl-5-(2,4-dioxotetrahydropyrimidin-1(2H)-yl)-2-methoxyphenyl)ethynyl)-2-fluoro-5-methylphenyl)methanesulfonamide] | 0.01 to 0.1 | 0.01 to 0.1 | < 0.01 | < 0.01
COc1c(C#Cc2ccc(NS(C)(=O)=O)c(F)c2Cl)cc(N2CCC(=O)NC2=O)cc1C(C)(C)C [IA-L2-1.21, N-(4-((3-tert-butyl-5-(2,4-dioxotetrahydropyrimidin-1(2H)-yl)-2-methoxyphenyl)ethynyl)-3-chloro-2-fluorophenyl)methanesulfonamide] | 0.01 to 0.1 | 0.01 to 0.1 | < 0.01 | < 0.01
COc1c(C#Cc2cc(F)c(NS(C)(=O)=O)cc2C(F)(F)F)cc(N2CCC(=O)NC2=O)cc1C(C)(C)C [IA-L2-1.22, N-(4-((3-tert-butyl-5-(2,4-dioxotetrahydropyrimidin-1(2H)-yl)-2-methoxyphenyl)ethynyl)-2-fluoro-5-(trifluoromethyl)phenyl)methanesulfonamide] | 0.1 to 1 | 0.01 to 0.1 | 0.01 to 0.1 | 0.01 to 0.1
COc1c(C#Cc2ccc(NS(C)(=O)=O)cc2)cc(N2CCC(=O)NC2=O)cc1C1CC1 [IA-L2-1.23, N-(4-((3-cyclopropyl-5-(2,4-dioxotetrahydropyrimidin-1(2H)-yl)-2-methoxyphenyl)ethynyl)phenyl)methanesulfonamide] | > 1 | 0.1 to 1 | 0.1 to 1 | 0.1 to 1
COc1c(C#Cc2ncc(NS(C)(=O)=O)cc2C)cc(N2CCC(=O)NC2=O)cc1C(C)(C)C [IA-L2-1.24, N-(6-((3-tert-butyl-5-(2,4-dioxotetrahydropyrimidin-1(2H)-yl)-2-methoxyphenyl)ethynyl)-5-methylpyridin-3-yl)methanesulfonamide] | 0.1 to 1 | 0.01 to 0.1 | < 0.01 | 0.01 to 0.1
COc1c(C#Cc2ccc(NS(C)(=O)=O)cn2)cc(N2CCC(=O)NC2=O)cc1C(C)(C)C [IA-L2-1.25, N-(6-((3-tert-butyl-5-(2,4-dioxotetrahydropyrimidin-1(2H)-yl)-2-methoxyphenyl)ethynyl)pyridin-3-yl)methanesulfonamide] | 0.1 to 1 | 0.01 to 0.1 | < 0.01 | 0.01 to 0.1
COc1c(C#Cc2ccc(NS(C)(=O)=O)nc2)cc(N2CCC(=O)NC2=O)cc1C(C)(C)C [IA-L2-1.26, N-(5-((3-tert-butyl-5-(2,4-dioxotetrahydropyrimidin-1(2H)-yl)-2-methoxyphenyl)ethynyl)-pyridin-2-yl)methanesulfonamide 2,2,2-trifluoroacetate] | 0.01 to 0.1 | 0.01 to 0.1 | 0.01 to 0.1 | 0.01 to 0.1
COc1c(C#Cc2ccc(NS(C)(=O)=O)c3ccccc23)cc(N2CCC(=O)NC2=O)cc1C(C)(C)C [IA-L2-2.1, N-(4-((3-tert-butyl-5-(2,4-dioxotetrahydropyrimidin-1(2H)-yl)-2-methoxyphenyl)ethynyl)-naphthalen-1-yl)methanesulfonamide] | 0.1 to 1 | 0.01 to 0.1 | 0.01 to 0.1 | 0.1 to 1
CN(C(=O)c1cc(N2CCC(=O)NC2=O)cc(C(C)(C)C)c1O)c1ccc(NS(C)(=O)=O)cc1 [IA-L3-1.2, 3-tert-butyl-5-(2,4-dioxotetrahydropyrimidin-1(2H)-yl)-2-hydroxy-N-methyl-N-(4-(methyl-sulfonamido)phenyl)benzamide] | > 1 | 0.01 to 0.1 | > 1 | > 1
CC(C)(C)c1cc(N2CCC(=O)NC2=O)cc(C(=O)Nc2ccccc2)c1O [IA-L3-1.3, 3-tert-butyl-5-(2,4-dioxotetrahydropyrimidin-1(2H)-yl)-2-hydroxy-N-phenylbenzamide] | > 1 | 0.1 to 1 | > 1 | > 1
CN(c1ccc(NC(=O)c2cc(N3CCC(=O)NC3=O)cc(C(C)(C)C)c2O)cc1)S(C)(=O)=O [IA-L3-1.4, 3-tert-butyl-5-(2,4-dioxotetrahydropyrimidin-1(2H)-yl)-2-hydroxy-N-(4-(N-methylmethylsulfonamido)phenyl)benzamide] | > 1 | 0.01 to 0.1 | 0.1 to 1 | > 1
CC(C)(C)c1cc(N2CCC(=O)NC2=O)cc(C(=O)Nc2cccc(NS(C)(=O)=O)c2)c1O [IA-L3-1.5, 3-tert-butyl-5-(2,4-dioxotetrahydropyrimidin-1(2H)-yl)-2-hydroxy-N-(3-(methylsulfonamido)phenyl)benzamide] | > 1 | 0.01 to 0.1 | 0.1 to 1 | > 1
